Patent publication US6130250A, “Veterinary use of a pleuromutilin derivative” (priority 1996, dated 2000)
Several values for one entry are separate records, joined by “and”; a condition that tells them apart may be missing. Equal values may be shown once. Where a name gives a salt, the structure may show the parent alone. Read-outs that look alike come from different tables or passages of the source.

How the values were obtained:
[1] = tested on: Lawsonia intracellularis; experiment: Lawsonia intracellularis infection of IEC-18 rat enterocyte cell cultures; format: cell-based; settings: for Percentage ratio of Lawsonia intracellularis infection: listed as Valnemulin (ch); for percent of cells infected with Lawsonia intracellularis at 2 µg/mL: IEC-18, 2 μg/ml; for percent of cells infected with Lawsonia intracellularis at 2 µg/mL / percent of cells infected with Lawsonia intracellularis at 8 µg/mL: first strain column, read-out: Percentage ratio of Lawsonia intracellularis infection; for percent of cells infected with Lawsonia intracellularis at 8 µg/mL: IEC-18, 8 μg/ml
Procedure: The method of Lawson, G. H. K. et al., J. Clin. Microbiol. 31 (1993) 1136-1142 is generally followed, with some modifications (standard Kirby-Bauer disc methods are not applicable to intracellular bacteria):
Cells: Monolayers of IEC-18 rat enterocyte cell cultures (ATCC CRL 1589) are established and maintained by standard cell culture methods. One day old monolayers of dividing cells (approx. 30% confluence) are prepared for infection on day 0, on glass coverslips in small culture vials (Tracs).
Inocula: Batches of three strains of Lawsonia intracellularis are used as inocula. These are derived from pigs afflicted with proliferative enteropathy, of the proliferative haemorrhagic enteropathy (PHE) and porcine intestinal adenomatosis (PIA) forms prepared from pig intestines, and passaged in cell cultures as described in the above Lawson reference. The two PHE strains were partly tested for pathogenicity in pigs as described in McOrist, S. et al., Infect. Immun. 61 (1993) 4286-4292. Inocula batches are collected after several cell passages, and stored frozen at -70° C. in 1 ml vials. Preliminary trials established appropriate dilutions of thawed vials that would result in readily recognizeable cell infections in 5 day trials.
Antibiotics are prepared as 100× stock solutions for each use. Activity of each batch of antibiotic is confirmed by standard Kirby-Bauer disc methods with a laboratory strain of Escherichia coli.
Infections: On day 0, a vial of each strain is thawed, diluted 1/8 to 1/32 with culture medium, for use in four groups 1 to 4.
For group 4 (continuous treatment) this inoculum is initially incubated for one hour at 37° C. in culture medium containing the antibiotic at various concentrations prior to addition to cells.
For group 3 (extracellular activity) this inoculum is prepared in culture medium, containing the antibiotic at various concentrations added immediately prior to time of addition to cells.
For groups 1 (control) and 2 (intracellular activity) inocula are prepared in culture medium free of antibiotics and added to cells. Culture vials (Tracs) with cells with added inocula (+/- antibiotics) in a total of 0.5 ml of medium are placed in steel jars, evacuated to 40% atmosphere (8% O2), left for 2 min, replenished with hydrogen and finally 10% CO2. Tracs are then removed from these jars and placed into an incubator set to provide a humidified atmosphere of 8% O2, 8.8% CO2 and the remainder nitrogen, at 37° C.
On days 1 and 2 all vials are removed and refed with fresh medium, either containing antibiotics, groups 2 and 4, or not, groups 1 and 3, and replaced into the incubator. On day 5, all coverslips are removed and stained for Lawsonia intracellularis by indirect immunoperoxidase stain incorporating a specific monoclonal antibody. The number of cells on each coverslip, heavily infected with Lawsonia intracellularis (>30 per cell, heavily infected cell=HIC) is used as the main measure of infection. The number of foci of HIC and general cell observations are also noted. HIC in control (group 1), intracellularly active antibiotic assay (group 2), extracelluiarly active antibiotic assay (group 3) and continuous treatment assay (group 4) are compared in triplicate assays, for up to 3 strains each. Some assay are repeated for various inocula strengths. Percentage ratios are calculated after derivation of the mean HIC of the controls relevant to the test group. Mean control HIC is the total number of HIC in control Tracs divided by the number of infected control Tracs. The percentage ratio of test Tracs is then calculated by dividing their HIC value by the mean control HIC, multiplied by 100 to give a percentage.

[2] = tested on: M. hyopneumoniae; experiment: Prevention of experimentally-induced enzootic pneumonia in vivo (Trials 1-3); parameters: species or system pigs
Procedure: An experimental model of enzootic pneumonia, using passaged lung material originally derived by infection of gnotobiotic pigs with M. hyopneumoniae,was employed to assess the potential of valnemulin for prevention of the disease. Three trials were performed: Trials 1 and 2 were dose titration studies of the novel compound using a standard challenge strain of M. hyopneumoniae and in Trial 3, the efficacy of the compound at 200 ppm in feed against a second challenge strain was assessed. Large white Landrace male pigs, 6-7 weeks of age, from stock free of infection with M. hyopneumoniae are used. The challenge materials are pneumonic lungs containing M. hyopneumoniae given as a homogenate intranasally on three successive days. […] The challenge material was originally derived by infection of gnotobiotic pigs with M. hyopneumoniae and subsequent passage in SPF (Specific Pathogen-free) pigs and had been stored below -70° C.
Trial 1: Medication with valnemulin hydrochloride by stomach tube (gavage) once a day at 0 (control), 2.5, 5, 7.5 or 10 mg/kg body weight per day. Six pigs per group.
Trial 2: Medication with valnemulin hydrochloride in feed at 0, 100, 200, 300 or 400 ppm (equivalent to 0, 5, 10, 15 and 20 mg/kg/day). Six pigs per group.
Trial 3: Medication with valnemulin hydrochloride in feed at 0 or 200 ppm (equivalent to 0 and 10 mg/kg/day). Eight pigs per group. Medication was given from the first day of challenge infection until post-mortem examination performed approximately 3 weeks after challenge infection. Disease was assessed by quantifying lung lesions [Cambridge lung lesion scoring system (Goodwin, R. F. W. and Whittlestone, P., J. Hyg. 69 [1971] 391-397), in which the score is an approximation of percent of lung affected with pneumonia], by estimation of lung-bodyweight ratio and by isolation of M. hyopneumoniae from lungs.

[3] = Lawsonia intracellularis, group 2 (intracellular activity)
[4] = Lawsonia intracellularis, group 3 (extracellular activity)
[5] = Trial 2, feed, 100 ppm (5 mg/kg)
[6] = Trial 2, feed, 200 ppm (10 mg/kg)
[7] = Trial 2, feed, 300 ppm (15 mg/kg)
[8] = Trial 2, feed, 400 ppm (20 mg/kg)
[9] = Trial 3, feed, 200 ppm (10 mg/kg)

## C=C[C@]1(C)C[C@@H](OC(=O)CSC(C)(C)CNC(=O)[C@H](N)C(C)C)[C@]2(C)[C@H](C)CC[C@]3(CCC(=O)[C@H]32)[C@@H](C)[C@@H]1O [valnemulin hydrochloride, 14-O-[1-[(R)-2-amino-3-methylbutyrylamino]-2-methylpropan-2-ylthioacetyl]mutilin]
[1]; 4 μg/ml, group 2 (intracellular activity)
  Percentage ratio of Lawsonia intracellularis infection: 1.7%
[1]; 4 μg/ml, group 3 (extracellular activity)
  Percentage ratio of Lawsonia intracellularis infection: 0.83% and 1.7%
[1]; 4 μg/ml, group 4 (continuous treatment)
  Percentage ratio of Lawsonia intracellularis infection: 0.8% and 2.5%
[1]; 8 μg/ml, group 2 (intracellular activity)
  Percentage ratio of Lawsonia intracellularis infection: 0.86%
[1]; 8 μg/ml, group 3 (extracellular activity)
  Percentage ratio of Lawsonia intracellularis infection: 0.2% and 1.4%
[1]; 8 μg/ml, group 4 (continuous treatment)
  Percentage ratio of Lawsonia intracellularis infection: 0.5% and 1.4% and 0.2%
[1]; [3]
  percent of cells infected with Lawsonia intracellularis at 2 µg/mL: 0%
  percent of cells infected with Lawsonia intracellularis at 8 µg/mL: 0%
[1]; [4]
  percent of cells infected with Lawsonia intracellularis at 2 µg/mL: 0%
  percent of cells infected with Lawsonia intracellularis at 8 µg/mL: 0%
[1]; Lawsonia intracellularis, group 4 (continuous treatment)
  percent of cells infected with Lawsonia intracellularis at 8 µg/mL: 0%
[1]; Lawsonia intracellularis, read-out: minimum concentration to cause significant inhibition of growth (<1% growth)
  MIC: < 2 µg/mL
[2]; Trial 1, 2.5 mg/kg
  pigs from which M. hyopneumoniae was reisolated: 4 pigs
[2]; Trial 1, 7.5 mg/kg
  reduction of lesions: 71%
[2]; Trial 1, 10 mg/kg
  pigs from which M. hyopneumoniae was reisolated: 1 pigs
  reduction of lesions: 87%
[2]; Trial 1, 2.5 and 5 mg/kg/day
  effect on lesions in words: somewhat less effective at reducing lesions
[2]; Trial 1, gavage, 2.5 mg/kg/day
  Lung lesion score: 7.7
  Lung-bodyweight ratio: 1.21%
[2]; Trial 1, gavage, 5 mg/kg/day
  Lung lesion score: 11.1
  Lung-bodyweight ratio: 1.31%
[2]; Trial 1, gavage, 7.5 mg/kg/day
  Lung lesion score: 3.8
  Lung-bodyweight ratio: 1.21%
[2]; Trial 1, gavage, 10 mg/kg/day
  Lung lesion score: 1.7
  Lung-bodyweight ratio: 1.08%
[2]; Trial 2, 100 ppm
  pigs from which M. hyopneumoniae was reisolated: 4 pigs
  reduction in lesions: No reduction in lesions
[2]; Trial 2, 200 ppm
  pigs from which M. hyopneumoniae was reisolated: 3 pigs
  reduction of lesions: 46%
[2]; Trial 2, 300 ppm
  reduction of lesions: 43%
  reisolation of M. hyopneumoniae: not reisolated
[2]; Trial 2, 400 ppm
  reduction of lesions: 71%
  reisolation of M. hyopneumoniae: not reisolated
[2]; [5]
  Lung lesion score: 25
  Lung-bodyweight ratio: 1.53%
[2]; [6]
  Lung lesion score: 12
  Lung-bodyweight ratio: 1.29%
[2]; [7]
  Lung lesion score: 12.7
  Lung-bodyweight ratio: 1.27%
[2]; [8]
  Lung lesion score: 6.3
  Lung-bodyweight ratio: 1.24%
[2]; Trial 2, levels down to 200 ppm
  reduction of lung weights: significant reductions at levels down to 200 ppm
[2]; Trial 3, 200 ppm
  levels of M. hyopneumoniae at post-mortem, medicated vs unmedicated: no difference in the levels of M. hyopneumoniae
[2]; Trial 3, 200 ppm in feed
  reduction of lesion scores: 79%
[2]; [9]
  Lung lesion score: 2.3
  Lung-bodyweight ratio: 1.21%
[2]; separate experiments, two challenge strains
  prevention of experimentally-induced enzootic pneumonia: effective for the prevention of experimentally-induced enzootic pneumonia
